Read-outs that look alike come from different tables or passages of the source.
Conditions: amide bond, DMF
[1] = PyBOP/HOBt/NMM, 16.0 h, 15 steps
[2] = PyBOP/HOBt/NMM, 16.0 h, 17 steps

Structure (SMILES)	ring closure, yield of all isomers [1] [%]	ring closure, yield of all isomers [2] [%]	other results
C[C@@H]1NC(=O)CNC(=O)[C@@H]2C[C@@H](O)CN2C(=O)[C@@H]2CCCN2C(=O)[C@H](Cc2ccc(O)cc2)NC(=O)[C@H](CC(N)=O)NC1=O [Cyclo(Tyr-Pro-4Hyp-Gly-Ala-Asn)]	4.4	–	–
C[C@@H]1NC(=O)CNC(=O)[C@@H]2C[C@@H](O)CN2C(=O)[C@@H]2CCCN2C(=O)[C@H](Cc2ccc(O)cc2)NC(=O)[C@H](CC(N)=O)NC(=O)CNC1=O [Cyclo(Tyr-Pro-4Hyp-Gly-Ala-Gly-Asn)]	–	7	–
C[C@@H]1NC(=O)CNC(=O)[C@H](CC(N)=O)NC(=O)[C@H](Cc2ccc(O)cc2)NC(=O)[C@@H]2CCCN2C(=O)[C@@H]2C[C@@H](O)CN2C(=O)CNC1=O [cyclo(-Gly-Ala-Gly-Hyp-Pro-Tyr-Asn-)]	–	6.2	–
C[C@@H]1NC(=O)CNC(=O)[C@H](CCC(N)=O)NC(=O)[C@H](Cc2ccc(O)cc2)NC(=O)[C@@H]2CCCN2C(=O)[C@@H]2C[C@@H](O)CN2C(=O)CNC1=O [cyclo(-Gly-Ala-Gly-Hyp-Pro-Tyr-Gln-)]	–	6.6	–
C[C@@H]1NC(=O)[C@H](CO)NC(=O)[C@H](C)NC(=O)[C@H](Cc2ccc(O)cc2)NC(=O)[C@H](CC(N)=O)NC(=O)CNC1=O [cyclo(-Tyr-Ala-Ser-Ala-Gly-Asn-)]	4.3	–	–
NC(=O)C[C@@H]1NC(=O)CNC(=O)[C@H](Cc2ccc(O)cc2)NC(=O)[C@H](CC(N)=O)NC(=O)CNC(=O)[C@H](Cc2ccc(O)cc2)NC1=O [cyclo(-Tyr-Gly-Asn-Tyr-Gly-Asn-)]	–	–	ring closure, yield of all isomers (PyBOP, 16 steps): 14%

From patent publication EP1226160B1
